The text below walks through data of ChEMBL document CHEMBL5543140 (J Med Chem, 2024).

Usually Emax stands for the size of the effect at its maximum, as opposed to the concentration needed. In general, inhibition refers to the percentage by which the read-out fell short of the control.

Data set [1] concerns the target 5-hydroxytryptamine receptor 2B (Homo sapiens, UniProt P41595). The experiment in a line: Agonist activity at human 5-HT2B receptor expressed in CHO cells assessed as maximal IP2 production measured after 30 mins incubation by HTRF assay relative to control. It counts as functional, cell-based. A general note: TR-FRET usually uses a lanthanide donor and a delayed reading to cut background.

The target in data set [2] is 5-hydroxytryptamine receptor 2C (Homo sapiens) (UniProt P28335). The data set is described as follows: Agonist activity at human 5-HT2C receptor expressed in HEK293 cells assessed as maximal IP2 production measured after 30 mins incubation by HTRF assay relative to control. It counts as functional, cell-based. As to conditions: filed as agonist.
5-hydroxytryptamine receptor 2C (Homo sapiens), sequence (P28335 whole entry): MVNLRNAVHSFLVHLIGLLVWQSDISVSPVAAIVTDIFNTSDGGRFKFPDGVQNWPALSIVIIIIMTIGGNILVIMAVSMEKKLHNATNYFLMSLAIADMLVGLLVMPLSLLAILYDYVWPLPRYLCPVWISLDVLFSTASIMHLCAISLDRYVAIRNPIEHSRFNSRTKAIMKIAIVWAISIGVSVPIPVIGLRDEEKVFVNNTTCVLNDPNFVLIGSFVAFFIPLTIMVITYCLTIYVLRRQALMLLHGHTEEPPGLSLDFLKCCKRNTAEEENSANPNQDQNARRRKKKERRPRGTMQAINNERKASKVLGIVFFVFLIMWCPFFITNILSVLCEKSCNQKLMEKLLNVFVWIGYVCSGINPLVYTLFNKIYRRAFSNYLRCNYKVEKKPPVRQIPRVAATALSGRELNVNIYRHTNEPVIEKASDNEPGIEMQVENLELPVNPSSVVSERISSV
Data set [3] addresses T1, 5-hydroxytryptamine receptor 1A (Homo sapiens) (UniProt P08908).
T1 sequence (whole entry): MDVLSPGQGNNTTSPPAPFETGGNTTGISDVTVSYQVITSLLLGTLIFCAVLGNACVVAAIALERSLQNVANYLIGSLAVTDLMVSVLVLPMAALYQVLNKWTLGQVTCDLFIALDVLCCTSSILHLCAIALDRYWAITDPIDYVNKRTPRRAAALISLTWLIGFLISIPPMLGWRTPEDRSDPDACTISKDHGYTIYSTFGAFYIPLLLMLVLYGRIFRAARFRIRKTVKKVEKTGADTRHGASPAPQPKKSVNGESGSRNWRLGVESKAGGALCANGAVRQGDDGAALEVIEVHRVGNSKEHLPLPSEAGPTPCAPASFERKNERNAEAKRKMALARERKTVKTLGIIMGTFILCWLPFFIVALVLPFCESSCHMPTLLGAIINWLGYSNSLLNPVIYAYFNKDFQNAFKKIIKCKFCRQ
The data set is described as follows: Agonist activity at human 5-HT1A receptor expressed in HEK293T cells co-transfected with 22F-Glosensor assessed as inhibition of cAMP production measured after 30 mins incubation by Microbeta2Micro-plate counter analysis. It counts as functional, cell-based. The following applies: filed as agonist. (In general: cAMP levels reflect the balance of adenylyl cyclase and phosphodiesterase activity.)

The target of data set [4] is Adrenergic receptor alpha-2 (Rattus norvegicus) (UniProt P22086+P19328+P22909). The data set is described as follows: Displacement of [3H]RX 821002 from rat cerebral cortex alpha2 adrenergic receptor assessed as remaining activity at 10 uM after 60 mins by scintillation counting method relative to control. (Displacement assays read how much labelled ligand stays bound in the presence of the test substance.)

In data set [5] the target is Muscarinic acetylcholine receptor M1 (Homo sapiens) (UniProt P11229). The data set is described as follows: Displacement of [3H]-Pirenzepine from human muscarinic M1 expressed in CHO-K1 cells membrane at 10 uM incubated for 60 mins by microbeta liquid scintillation counting analysis. It counts as cell membranes. As to conditions: Cell membrane.
Muscarinic acetylcholine receptor M1 (Homo sapiens), sequence (P11229 whole entry): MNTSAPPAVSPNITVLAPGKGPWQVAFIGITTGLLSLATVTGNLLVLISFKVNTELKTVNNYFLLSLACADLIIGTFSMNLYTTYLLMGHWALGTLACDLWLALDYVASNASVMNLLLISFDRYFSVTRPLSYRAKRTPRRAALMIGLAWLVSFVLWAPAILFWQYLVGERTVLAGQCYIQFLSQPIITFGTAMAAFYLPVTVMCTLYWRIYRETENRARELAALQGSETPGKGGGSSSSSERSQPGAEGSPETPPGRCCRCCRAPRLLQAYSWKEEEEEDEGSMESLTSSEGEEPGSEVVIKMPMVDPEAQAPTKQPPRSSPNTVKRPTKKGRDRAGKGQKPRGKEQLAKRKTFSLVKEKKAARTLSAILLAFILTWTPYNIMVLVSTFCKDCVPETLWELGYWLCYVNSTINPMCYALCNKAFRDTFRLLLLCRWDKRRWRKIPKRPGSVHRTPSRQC
In data set [6] the target is Muscarinic acetylcholine receptor M4 (Homo sapiens) (UniProt P08173). The experiment in a line: Displacement of [3H]4-DAMP from human recombinant muscarinic M4 receptor expressed in HEK293 cells at 10 uM incubated for 60 mins by radiometric based scintillation counter assay relative to control. It counts as cell-based.
Muscarinic acetylcholine receptor M4 (Homo sapiens), sequence (P08173 whole entry): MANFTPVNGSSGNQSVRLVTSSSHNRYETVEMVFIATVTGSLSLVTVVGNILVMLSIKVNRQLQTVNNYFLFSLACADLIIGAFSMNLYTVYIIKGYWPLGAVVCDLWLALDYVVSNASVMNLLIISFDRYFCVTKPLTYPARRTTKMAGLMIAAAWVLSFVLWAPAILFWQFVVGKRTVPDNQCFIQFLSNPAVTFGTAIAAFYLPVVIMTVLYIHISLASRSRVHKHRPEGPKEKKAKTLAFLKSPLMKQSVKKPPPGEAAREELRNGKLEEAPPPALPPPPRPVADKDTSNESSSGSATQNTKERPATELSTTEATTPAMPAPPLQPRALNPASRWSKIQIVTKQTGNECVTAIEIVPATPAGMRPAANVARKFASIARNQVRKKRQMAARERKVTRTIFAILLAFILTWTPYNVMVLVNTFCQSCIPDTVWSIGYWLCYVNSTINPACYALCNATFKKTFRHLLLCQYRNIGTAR
Data set [7] has as its target Muscarinic acetylcholine receptor M5 (Homo sapiens) (UniProt P08912). The experiment in a line: Displacement of [3H]4-DAMP from human recombinant muscarinic M5 receptor expressed in HEK293 cells at 10 uM incubated for 60 mins by radiometric based scintillation counter assay relative to control. It counts as cell-based.
Data set [8] deals with Voltage-dependent L-type calcium channel subunit alpha-1C (Homo sapiens, UniProt Q13936). The data set is described as follows: Binding affinity to human Calcium channel L-type (verapamil site) at 10 uM measured after 180 mins by [3H]D888-Radiometric assay relative to control.
Voltage-dependent L-type calcium channel subunit alpha-1C, sequence (Q13936 whole entry): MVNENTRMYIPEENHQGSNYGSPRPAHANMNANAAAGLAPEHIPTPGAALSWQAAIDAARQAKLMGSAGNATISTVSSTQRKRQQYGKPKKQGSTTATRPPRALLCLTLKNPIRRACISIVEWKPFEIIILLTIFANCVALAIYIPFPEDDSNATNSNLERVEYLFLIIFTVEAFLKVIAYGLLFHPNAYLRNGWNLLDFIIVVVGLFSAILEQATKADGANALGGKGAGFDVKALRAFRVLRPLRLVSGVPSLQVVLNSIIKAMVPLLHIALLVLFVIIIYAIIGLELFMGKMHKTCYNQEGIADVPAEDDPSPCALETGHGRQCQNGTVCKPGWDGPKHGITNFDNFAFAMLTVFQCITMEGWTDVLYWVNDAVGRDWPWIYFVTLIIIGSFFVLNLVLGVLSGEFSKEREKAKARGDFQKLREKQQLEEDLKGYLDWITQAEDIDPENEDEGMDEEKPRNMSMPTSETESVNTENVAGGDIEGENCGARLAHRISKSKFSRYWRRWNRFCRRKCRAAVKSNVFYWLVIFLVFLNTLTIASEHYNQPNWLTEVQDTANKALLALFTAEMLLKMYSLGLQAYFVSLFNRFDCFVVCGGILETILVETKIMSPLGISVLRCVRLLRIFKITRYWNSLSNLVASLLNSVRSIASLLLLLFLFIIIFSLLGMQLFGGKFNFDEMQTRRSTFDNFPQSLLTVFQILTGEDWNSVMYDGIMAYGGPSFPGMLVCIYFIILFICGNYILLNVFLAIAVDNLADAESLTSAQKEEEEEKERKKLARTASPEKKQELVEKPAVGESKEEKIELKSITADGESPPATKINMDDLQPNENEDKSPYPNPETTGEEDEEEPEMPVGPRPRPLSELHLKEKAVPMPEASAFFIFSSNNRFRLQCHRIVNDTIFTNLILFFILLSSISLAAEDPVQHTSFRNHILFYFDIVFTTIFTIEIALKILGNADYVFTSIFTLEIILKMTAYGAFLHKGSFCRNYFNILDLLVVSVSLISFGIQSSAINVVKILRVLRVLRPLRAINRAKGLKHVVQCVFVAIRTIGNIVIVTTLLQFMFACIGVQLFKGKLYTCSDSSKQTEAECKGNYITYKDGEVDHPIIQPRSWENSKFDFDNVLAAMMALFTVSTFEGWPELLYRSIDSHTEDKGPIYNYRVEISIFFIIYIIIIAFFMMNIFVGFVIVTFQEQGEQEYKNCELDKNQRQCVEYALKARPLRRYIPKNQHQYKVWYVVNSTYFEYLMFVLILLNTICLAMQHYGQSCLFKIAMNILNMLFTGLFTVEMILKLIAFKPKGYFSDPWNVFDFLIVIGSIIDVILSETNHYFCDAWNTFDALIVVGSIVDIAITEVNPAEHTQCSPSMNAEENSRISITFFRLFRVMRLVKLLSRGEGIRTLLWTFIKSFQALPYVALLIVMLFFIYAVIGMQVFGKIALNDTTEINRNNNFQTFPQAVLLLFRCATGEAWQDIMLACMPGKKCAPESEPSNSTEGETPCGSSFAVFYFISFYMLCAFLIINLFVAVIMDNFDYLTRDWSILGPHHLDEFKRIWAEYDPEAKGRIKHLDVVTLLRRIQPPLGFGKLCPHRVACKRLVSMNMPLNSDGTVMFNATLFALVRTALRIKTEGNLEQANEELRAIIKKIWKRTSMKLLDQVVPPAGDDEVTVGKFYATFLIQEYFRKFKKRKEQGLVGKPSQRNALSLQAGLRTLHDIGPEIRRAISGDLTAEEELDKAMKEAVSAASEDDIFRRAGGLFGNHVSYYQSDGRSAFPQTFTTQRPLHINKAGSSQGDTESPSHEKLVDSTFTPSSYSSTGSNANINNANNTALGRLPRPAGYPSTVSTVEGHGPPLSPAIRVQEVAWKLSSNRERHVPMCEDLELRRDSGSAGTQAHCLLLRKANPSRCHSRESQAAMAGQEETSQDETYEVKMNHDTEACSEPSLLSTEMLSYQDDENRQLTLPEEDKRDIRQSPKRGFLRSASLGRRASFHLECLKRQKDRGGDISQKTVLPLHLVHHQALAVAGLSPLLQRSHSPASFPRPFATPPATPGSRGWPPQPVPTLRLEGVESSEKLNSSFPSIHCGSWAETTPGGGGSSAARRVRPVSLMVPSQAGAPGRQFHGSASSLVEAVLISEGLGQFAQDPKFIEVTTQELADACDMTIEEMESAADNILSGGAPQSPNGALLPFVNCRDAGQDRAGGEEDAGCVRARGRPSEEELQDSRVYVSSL
Data set [9] concerns Mus musculus. The experiment in a line: Psychedelic effect in C57BL/6J mouse assessed as induction of 5-HT2A receptor dependent maximal head-twitch responses by visual observation at 1 mg/kg, sc at 15 to 220 mins. It counts as functional, organism-based. The following applies: time lower 15.0 min, time upper […].
Data set [10] concerns Mus musculus. The experiment in a line: Locomotor activity in C57BL/6J mouse assessed as distance traveled at 1 mg/kg, ip measured for 15 to 25 mins. It counts as functional. As to conditions: time 15-25 min.

Calls of active or inactive are those of the source. No cut-off for these calls is given here.

5-hydroxytryptamine receptor 2B, sequence (P41595 whole entry): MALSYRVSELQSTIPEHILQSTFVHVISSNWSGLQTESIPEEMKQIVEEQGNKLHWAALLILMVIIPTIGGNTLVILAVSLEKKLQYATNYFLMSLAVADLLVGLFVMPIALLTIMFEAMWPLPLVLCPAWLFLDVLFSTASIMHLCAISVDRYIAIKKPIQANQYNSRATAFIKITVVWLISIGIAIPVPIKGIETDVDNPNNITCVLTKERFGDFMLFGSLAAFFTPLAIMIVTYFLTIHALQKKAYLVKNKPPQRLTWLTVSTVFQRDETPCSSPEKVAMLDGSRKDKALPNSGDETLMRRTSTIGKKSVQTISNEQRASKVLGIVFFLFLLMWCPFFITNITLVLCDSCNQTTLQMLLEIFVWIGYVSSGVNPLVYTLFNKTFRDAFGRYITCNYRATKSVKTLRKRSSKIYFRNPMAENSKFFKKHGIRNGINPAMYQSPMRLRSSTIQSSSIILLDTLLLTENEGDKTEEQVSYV
Muscarinic acetylcholine receptor M5 (Homo sapiens), sequence (P08912 whole entry): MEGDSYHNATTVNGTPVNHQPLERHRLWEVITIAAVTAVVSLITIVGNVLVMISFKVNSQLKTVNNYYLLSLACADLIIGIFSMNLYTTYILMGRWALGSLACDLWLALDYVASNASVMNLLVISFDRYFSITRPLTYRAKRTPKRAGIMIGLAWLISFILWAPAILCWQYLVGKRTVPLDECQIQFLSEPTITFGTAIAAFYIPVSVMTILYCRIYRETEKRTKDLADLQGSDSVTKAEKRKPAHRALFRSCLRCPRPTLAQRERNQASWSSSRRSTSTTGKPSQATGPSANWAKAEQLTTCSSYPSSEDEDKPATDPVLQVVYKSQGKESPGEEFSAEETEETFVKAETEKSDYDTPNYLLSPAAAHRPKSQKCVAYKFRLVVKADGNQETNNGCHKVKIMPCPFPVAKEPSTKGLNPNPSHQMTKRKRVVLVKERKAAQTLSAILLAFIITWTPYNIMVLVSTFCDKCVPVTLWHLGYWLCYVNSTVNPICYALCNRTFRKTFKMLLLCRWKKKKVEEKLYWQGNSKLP

In the case of `COc1cc(CC(C)N)c(OC)cc1I` (racemic), the values for the EC50 in data set [1] (read-out: EC50) and in [1] (read-out: pEC50 (converted)) were 7 nM and 7.94 nM, respectively. The values for the Emax in [2] and in data set [3] were 96% and 103%, respectively. The Activity in data set [4] amounted to 82%; in data set [8], 56%; in data set [10], 2812 cm. Also, the inhibition in data set [5] amounted to 72%; in data set [6] it was 76%; in data set [7], 63%. In data set [9], the outcome was Active.
